Where “and” joins values, the source holds several entries; their conditions need not be identical. Identical values can stand only once.
Assays:
[1] = molecular target: SCD1 (Homo sapiens (Human), UniProt O00767); experiment: SCD1 13C-palmitic acid assay in A431 cells; format: cell-based; conditions: read-out: A431 cells 13C-PA IC50
Procedure: Human epithelial carcinoma A431 cells were seeded at 100,000 cells/well in complete growth medium (DMEM, Cellgro#10-013-CM, 4.5 g/L glucose, 10% FBS) in the presence of 0.05 mg/mL human insulin (Hannas Pharmaceutical Supply Co Inc, Humanlin 100 U/ml, 4 mg/ml) in 96-well tissue culture plate. 24 hr later, the cells were washed extensively with Assay Buffer (DMEM, Cellgro#10-013-CM, 4.5 g/L glucose, supplemented with 0.05 mg/mL Human Insulin and 0.1% Fatty Acid Free BSA). […] The cells were then returned to the tissue culture incubator (37° C. and 5% CO2) for 4 hrs. At the end of incubation, the cells were washed three times with 200 μL/well Hanks buffer (HBSS) and then stored at −20° C. until extraction.
For fatty acid extraction, after thawing out the plates, 40 μL of 1N KOH (containing 5 μM of internal standard 7,7,8,8-D4 palmitate) was added to each well and cell plates were incubated at 37° C. for 30 minutes. […] Acetonitrile (100 μL) was then added to extract fatty acids, followed by centrifugation at 3000 rpm for 10 minutes. 75 μL of extract was then transferred to a new glass vial in a 96-well cluster plate. 5 μL was injected for LC/MS analysis for detection of ^13C-palmitic acid and ^13C-palmitoleic acid. Formation of product ^13C-palmitoleic acid was determined as an index of SCD1 activity.
LC/MS analysis was performed as following. An Agilent 1100 Liquid Chromatographic System (Palo Alto, Calif.) consisting of a binary pump, a degasser and an autosampler was used. Separation of free fatty acids was performed on a Zorbax SB-C8 column (2.1×50 mm, particle size=3.5 μm). An isocratic elution was carried out with 10 mM triethylamine acetate in water: acetonitrile (3:7) at a flow rate of 0.3 mL/min. The column temperature was set at 30° C. and the sample injection volume was 5 μL. The LC run cycle was 4 min. A Micromass triple-quadrupole Quattro Micro mass […] (Waters, Beverly, Mass.) was interfaced with the LC system through a Z-spray electrospray ion source and was operated in the negative ion mode. Nitrogen was used as nebulizing gas, desolvation gas and cone curtain gas and argon was chosen as collision gas. The triple quadrupole MS source parameters were set as follows: capillary voltage, 3200V; cone voltage, 25V; exctractor 2V; source temperature, 120° C.; desolvation temperature, 300° C.; cone gas flow, 50 L/h; and desolvation gas flow, 700 L/h. […] MassLynx software version 4.0 was used for system control and data processing. The signal of U-^13C-palmitoleic acid was normalized to an internal standard.

[2] = molecular target: SCD1 (Rattus norvegicus (Rat), UniProt P07308); experiment: SCD1 enzymatic assay in rat liver microsomes (RLM); format: biochemical; conditions: rat liver microsomes; for inhibition at 1 µM / % Inh.@ 1 μM: 1 μM test compound; for inhibition at 1 µM: read-out: % Inh.@ 1 μM
Sequence of SCD1 (Rattus norvegicus (Rat), UniProt P07308) (P07308 whole entry): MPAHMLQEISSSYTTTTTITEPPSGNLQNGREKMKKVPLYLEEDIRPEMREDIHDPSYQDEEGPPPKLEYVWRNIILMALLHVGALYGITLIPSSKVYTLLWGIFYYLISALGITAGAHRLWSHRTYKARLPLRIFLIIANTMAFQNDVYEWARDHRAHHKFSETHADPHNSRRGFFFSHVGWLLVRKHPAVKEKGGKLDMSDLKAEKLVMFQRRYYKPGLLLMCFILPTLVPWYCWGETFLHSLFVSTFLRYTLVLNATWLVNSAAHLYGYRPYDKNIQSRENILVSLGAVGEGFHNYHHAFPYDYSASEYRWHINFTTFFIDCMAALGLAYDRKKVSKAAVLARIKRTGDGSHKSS
Procedure: Step 1: Preparation of Rat Liver Microsome (RLM):
Sprague Dawley rats from Charles River (200-225 g) underwent 2-cycle of fast-re-feeding (24-hour fast followed by 24-hour feeding with fat-free high carbohydrate diet, Reseach Diet, D00042802). The livers were removed and homogenized 1:4 (w/v) with pre-chilled, homogenizing buffer (10 mM Tris-HCl, 0.25 M sucrose, 1 mM EDTA, pH 7.4, supplemented with protease inhibitor cocktail). The homogenate was spun at 12,000×g for 15 min at 4° C. The supernatant was then re-centrifuged at 100,000×g for 60 min at 4° C. The pellet was re-suspended in 2 ml pre-chilled […] potassium phosphate buffer, pH 7.2, 10 mM EDTA at a concentration of 20 mg/ml. The resulting rat liver microsome (RLM) preparation was stored at −80° C.
Step 2: SCD1 Enzymatic Assay in RLM:
The SCD1 enzymatic assay was done in a volume of 50 μL using 10 μg of RLM (prepared as described above) in a 96-well polypropylene plate (enzyme reaction buffer contains 0.1 M K-Phosphate Buffer, 10 mM ATP, 6 mM MgCl2. 1 mM CoA, 1 mM β-NADH, 1.6 mM L-glutathione, 20 μM Stearoyl-CoA). Stearoyl-[9,10-^3H]-CoA (ARC-0390, 1 mCi/mL, 60 Ci/mmol,) was added at a final concentration of 2 μCi/mL. Test compound was then added to the reaction mixture at the selected concentration. After incubation at room temperature for 2 hours, 5 μL 1 N HCl was added to stop the reaction, followed by addition of 25 μL of 10% charcoal. The reaction mixture was then transferred to 96-well Multiscreen plate (Millipore, Cat#MSFCN6B50). […] The measured cpm values were fitted with Sigmoidal dose-response curve fit with Graphpad Prism.

Sequence of SCD1 (Homo sapiens (Human), UniProt O00767) (O00767 whole entry): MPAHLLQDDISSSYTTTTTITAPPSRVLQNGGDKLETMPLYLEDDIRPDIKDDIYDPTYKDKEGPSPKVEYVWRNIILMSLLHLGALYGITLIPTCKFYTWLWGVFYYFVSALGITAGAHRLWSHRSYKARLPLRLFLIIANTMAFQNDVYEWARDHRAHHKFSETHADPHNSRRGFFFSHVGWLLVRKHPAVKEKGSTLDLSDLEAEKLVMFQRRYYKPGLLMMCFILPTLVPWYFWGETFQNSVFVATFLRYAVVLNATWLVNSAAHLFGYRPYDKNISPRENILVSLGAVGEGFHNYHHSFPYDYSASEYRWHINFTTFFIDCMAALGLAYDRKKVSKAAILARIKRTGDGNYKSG

| SMILES | IC50 [1] | inhibition at 1 µM [2] | IC50 [2] | % Inh.@ 1 μM [2] |
| --- | --- | --- | --- | --- |
| Fc1ccc2onc(C3CCN(c4ccc(-c5cn[nH]c5)nn4)CC3)c2c1 [compound 26, 3-(1-(6-(1H-pyrazol-4-yl)pyridazin-3-yl)piperidin-4-yl)-5-fluorobenzo[d]isoxazole] | 112 nM | 86% | 111 nM | – |
| CNCc1cnn(-c2ccc(N3CCC(c4noc5ccc(F)cc45)CC3)nn2)c1 [compound 97, 1-(1-(6-(4-(5-fluorobenzo[d]isoxazol-3-yl)piperidin-1-yl)pyridazin-3-yl)-1H-pyrazol-4-yl)-N-methylmethanamine] | > 1000 nM | 11% | – | – |
| COc1ncc(-c2ccc(N3CCC(c4noc5ccc(F)cc45)CC3)nn2)cn1 [compound 34, 5-fluoro-3-(1-(6-(2-methoxypyrimidin-5-yl)pyridazin-3-yl)piperidin-4-yl)benzo[d]isoxazole] | 17 nM | 75% | 95 nM | – |
| Cn1cc(-c2ccc(N3CCC(n4ncc5ccc(C(F)(F)F)cc54)CC3)nn2)cn1 [compound 81, 1-(1-(6-(1-methyl-1H-pyrazol-4-yl)pyridazin-3-yl)piperidin-4-yl)-6-(trifluoromethyl)-1H-indazole] | 15 nM | 96% | 8 nM | – |
| OCCc1cnn(-c2ccc(N3CCC(c4noc5ccc(F)cc45)CC3)nn2)c1 [compound 98, 2-(1-(6-(4-(5-fluorobenzo[d]isoxazol-3-yl)piperidin-1-yl)pyridazin-3-yl)-1H-pyrazol-4-yl)ethanol] | 12 nM | 88% | 60 nM | – |
| Cn1cc(-c2ccc(N3CCC(N4CCc5cc(Cl)ccc54)CC3)nn2)cn1 [Compound #65, 5-chloro-1-(1-(6-(1-methyl-1H-pyrazol-4-yl)pyridazin-3-yl)piperidin-4-yl)indoline] | 218 nM | 83% | 181 nM | – |
| Cn1cc(-c2ccc(N3CCC(n4nc(Cl)c5ccccc54)CC3)nn2)cn1 [compound 83, 3-chloro-1-(1-(6-(1-methyl-1H-pyrazol-4-yl)pyridazin-3-yl)piperidin-4-yl)-1H-indazole] | 11 nM | 102% | 6 nM | – |
| OCc1nnc(-c2ccc(N3CCC(c4noc5ccc(F)cc45)CC3)nn2)o1 [compound 20, (5-(6-(4-(5-fluorobenzo[d]isoxazol-3-yl)piperidin-1-yl)pyridazin-3-yl)-1,3,4-oxadiazol-2-yl)methanol] | 11 nM | 96% | 16 nM and 14 nM | 96, 96% |
| CCOCCn1cc(-c2ccc(N3CCC(c4noc5ccc(F)cc45)CC3)nn2)cn1 [compound 75, 3-(1-(6-(1-(2-ethoxyethyl)-1H-pyrazol-4-yl)pyridazin-3-yl)piperidin-4-yl)-5-fluorobenzo[d]isoxazole] | 81 nM | 98% | 21 nM | – |
| Fc1ccc2c(c1)N(C1CCN(c3ccc(-c4cnn(CCN5CCOCC5)c4)nn3)CC1)CC2 [compound 71, 4-(2-(4-(6-(4-(6-fluoroindolin-1-yl)piperidin-1-yl)pyridazin-3-yl)-1H-pyrazol-1-yl)ethyl)morpholine] | > 1000 nM and 160 nM | 71% | 275 nM | – |
| Cn1cc(-c2ccc(N3CCC(n4ncc5c(Cl)cccc54)CC3)nn2)cn1 [compound 61, 4-chloro-1-(1-(6-(1-methyl-1H-pyrazol-4-yl)pyridazin-3-yl)piperidin-4-yl)-1H-indazole] | 17 nM | 101% | 15 nM | – |
| CN(C)c1ccc(-c2ccc(N3CCC(N4CCc5ccc(F)cc54)CC3)nn2)cn1 [Compound #44, 5-(6-(4-(6-fluoroindolin-1-yl)piperidin-1-yl)pyridazin-3-yl)-N,N-dimethylpyridin-2-amine] | 32 nM and 28 nM | 92% | 20 nM and 14 nM | 97% |
| Cc1cc(-c2ccc(N3CCC(c4noc5ccc(F)cc45)CC3)nn2)ccn1 [compound 25, 5-fluoro-3-(1-(6-(2-methylpyridin-4-yl)pyridazin-3-yl)piperidin-4-yl)benzo[d]isoxazole] | 17 nM | 62% | 171 nM | – |

Continued, in another order:

| IC50 [1] | inhibition at 1 µM [2] | IC50 [2] | SMILES | % Inh.@ 1 μM [2] |
| --- | --- | --- | --- | --- |
| 6 nM | 71% | 35 nM | CNC(=O)c1ccc(-c2ccc(N3CCC(N4CCc5ccc(F)cc54)CC3)nn2)cn1 [Compound #42, 5-(6-(4-(6-fluoroindolin-1-yl)piperidin-1-yl)pyridazin-3-yl)-N-methylpicolinamide] | – |
| 40 nM and 19 nM | 94% | 17 nM | CCn1cc(-c2ccc(N3CCC(N4CCc5ccc(F)cc54)CC3)nn2)cn1 [Compound #21, 1-(1-(6-(1-ethyl-1H-pyrazol-4-yl)pyridazin-3-yl)piperidin-4-yl)-6-fluoroindoline] | – |
| 28 nM | 99% | 35 nM | Cn1cc(-c2ccc(N3CCC(N4CCc5ccc(Cl)cc54)CC3)nn2)cn1 [Compound #59, 6-chloro-1-(1-(6-(1-methyl-1H-pyrazol-4-yl)pyridazin-3-yl)piperidin-4-yl)indoline] | – |
| 241 nM | 72% | 286 nM | Cc1ccc2c(c1)N(C1CCN(c3ccc(-c4cnn(C)c4)nn3)CC1)CC2 [Compound #57, 6-methyl-1-(1-(6-(1-methyl-1H-pyrazol-4-yl)pyridazin-3-yl)piperidin-4-yl)indoline] | – |
| 23 nM | 100% | 21 nM | Cc1cnn(-c2ccc(N3CCC(N4CCc5ccc(F)cc54)CC3)nn2)c1 [Compound #16, 6-fluoro-1-(1-(6-(4-methyl-1H-pyrazol-1-yl)pyridazin-3-yl)piperidin-4-yl)indoline] | – |
| 14 nM | 97% | 16 nM | Fc1ccc2c(c1)N(C1CCN(c3ccc(-c4ccc(C(F)(F)F)nc4)nn3)CC1)CC2 [Compound #76, 6-fluoro-1-(1-(6-(6-(trifluoromethyl)pyridin-3-yl)pyridazin-3-yl)piperidin-4-yl)indoline] | – |
| 4 nM | 98% | 12 nM | COc1ccc(-c2ccc(N3CCC(N4CCc5ccc(F)cc54)CC3)nn2)cn1 [Compound #37, 6-fluoro-1-(1-(6-(6-methoxypyridin-3-yl)pyridazin-3-yl)piperidin-4-yl)indoline] | – |
| 20 nM | 95% | 21 nM | Fc1ccc2c(c1)N(C1CCN(c3ccc(-c4cn[nH]c4)nn3)CC1)CC2 [compound 77, 1-(1-(6-(1H-pyrazol-4-yl)pyridazin-3-yl)piperidin-4-yl)-6-fluoroindoline] | – |
| 40 nM | 96% | 12 nM | Cc1cnn(-c2ccc(N3CCC(c4noc5ccc(F)cc45)CC3)nn2)c1 [compound 94, 5-fluoro-3-(1-(6-(4-methyl-1H-pyrazol-1-yl)pyridazin-3-yl)piperidin-4-yl)benzo[d]isoxazote] | – |

Source: patent publication US9102669B2, “Substituted piperidinyl-pyridazinyl derivatives useful as SCD 1 inhibitors” (Janssen Pharmaceutica NV, priority 2011, dated 2015)
